Species: Rattus norvegicus
Experiment: DrugMatrix - Regimen: Daily Repeat
Assay type: toxicity, organism-based, Sprague-Dawley
Parameters: regimen Daily Repeat, gender Male, age 6-8 weeks
Conditions: in vivo, po, route oral GAVAGE, vehicle 100 % WATER; for ABSOLUTE BASOPHIL / ABSOLUTE EOSINOPHIL / ABSOLUTE LYMPHOCYTE / ABSOLUTE MONOCYTE / ABSOLUTE SEGMENTED NEUTROPHIL / BASOPHIL / EOSINOPHIL / ERYTHROCYTE COUNT / HEMATOCRIT / HEMOGLOBIN / LEUKOCYTE COUNT / LYMPHOCYTE / MEAN CORPUSCULAR HEMOGLOBIN / MEAN CORPUSCULAR HEMOGLOBIN CONCENTRATION / MEAN CORPUSCULAR VOLUME / MONOCYTE / NEUTROPHIL / NUCLEATED RED BLOOD CELLS / PLATELET COUNT: tissue Blood; for ALANINE AMINOTRANSFERASE / ALBUMIN / ALKALINE PHOSPHATASE / ASPARTATE AMINOTRANSFERASE / BLOOD UREA NITROGEN / CARBON DIOXIDE / CHLORIDE / CHOLESTEROL / CREATINE PHOSPHOKINASE / CREATININE / GLUCOSE / LACTATE DEHYDROGENASE / LIPASE / PHOSPHORUS / POTASSIUM / SODIUM / TOTAL BILIRUBIN / TOTAL PROTEIN / URIC ACID: tissue Plasma
[1] = 0 mg/kg, 72 h, dose level Control, time 3 day
[2] = 0 mg/kg, 120 h, dose level Control, time 5 day
[3] = 150 mg/kg, 72 h, dose level Low, time 3 day
[4] = 150 mg/kg, 120 h, dose level Low, time 5 day

In the case of `Cc1c(N(C)CS(=O)(=O)[O-])c(=O)n(-c2ccccc2)n1C.[Na+]` [DIPYRONE SODIUM], the “ABSOLUTE BASOPHIL” value [1] is reported as 0 CELLS/uL, the “ABSOLUTE EOSINOPHIL” value [1] is reported as 25 CELLS/uL and the “ABSOLUTE LYMPHOCYTE” value [1] is reported as 14357 CELLS/uL. The “ABSOLUTE MONOCYTE” value [1] was 456.33 CELLS/uL, the “ABSOLUTE SEGMENTED NEUTROPHIL” value [1] was 1461.67 CELLS/uL and the BASOPHIL [1] was 0%. The EOSINOPHIL [1] was 0.17%, the “ERYTHROCYTE COUNT” value [1] was 5.85 x10E6/uL and the HEMATOCRIT [1] was 37.62%. The HEMOGLOBIN [1] was 13.87 G/DL, the “LEUKOCYTE COUNT” value [1] was 16.3 x10E3/uL and the LYMPHOCYTE [1] was 88%. The “MEAN CORPUSCULAR HEMOGLOBIN” value [1] was 23.68 pg, the “MEAN CORPUSCULAR HEMOGLOBIN CONCENTRATION” value [1] was 36.88 G/DL and the “MEAN CORPUSCULAR VOLUME” value [1] was 64.23 fL. For the same molecule, the MONOCYTE [1] was 2.83%, the NEUTROPHIL [1] was 9% and the “NUCLEATED RED BLOOD CELLS” value [1] was 0 /100WBC. For the same molecule, the “PLATELET COUNT” value [1] was 1125.33 x10E3/uL, the “ALANINE AMINOTRANSFERASE” value [1] was 49.67 u/L and the ALBUMIN [1] was 4.23 G/DL. For the same molecule, the “ALKALINE PHOSPHATASE” value [1] was 400.83 u/L, the “ASPARTATE AMINOTRANSFERASE” value [1] was 89.17 u/L and the “BLOOD UREA NITROGEN” value [1] was 16 mg/dL. For the same molecule, the “CARBON DIOXIDE” value [1] was 31.83 mmol/L, the CHLORIDE [1] was 99 MEQ/L and the CHOLESTEROL [1] was 76 mg/dL. The “CREATINE PHOSPHOKINASE” value [1] was 777.67 u/L, the CREATININE [1] was 0.22 mg/dL and the GLUCOSE [1] was 158.33 mg/dL. For the same molecule, the “LACTATE DEHYDROGENASE” value [1] was 186.17 u/L, the LIPASE [1] was 9.33 u/L and the PHOSPHORUS [1] was 12.95 mg/dL. For the same molecule, the POTASSIUM [1] was 7.01 MEQ/L, the SODIUM [1] was 141.53 MEQ/L and the “TOTAL BILIRUBIN” value [1] was 0.18 mg/dL. For the same molecule, the “TOTAL PROTEIN” value [1] was 6.08 G/DL, the “URIC ACID” value [1] was 1.77 mg/dL and the “ABSOLUTE BASOPHIL” value [2] was 0 CELLS/uL. The “ABSOLUTE EOSINOPHIL” value [2] was 0 CELLS/uL, the “ABSOLUTE LYMPHOCYTE” value [2] was 8994.5 CELLS/uL and the “ABSOLUTE MONOCYTE” value [2] was 122.33 CELLS/uL. The “ABSOLUTE SEGMENTED NEUTROPHIL” value [2] was 666.5 CELLS/uL, the BASOPHIL [2] was 0% and the EOSINOPHIL [2] was 0%. For the same molecule, the “ERYTHROCYTE COUNT” value [2] was 5.74 x10E6/uL, the HEMATOCRIT [2] was 35.17% and the HEMOGLOBIN [2] was 13.28 G/DL. The “LEUKOCYTE COUNT” value [2] was 9.78 x10E3/uL, the LYMPHOCYTE [2] was 92.33% and the “MEAN CORPUSCULAR HEMOGLOBIN” value [2] was 23.15 pg. For the same molecule, the “MEAN CORPUSCULAR HEMOGLOBIN CONCENTRATION” value [2] was 37.8 G/DL, the “MEAN CORPUSCULAR VOLUME” value [2] was 61.27 fL and the MONOCYTE [2] was 1.33%. The NEUTROPHIL [2] was 6.33%, the “NUCLEATED RED BLOOD CELLS” value [2] was 0 /100WBC and the “PLATELET COUNT” value [2] was 1117 x10E3/uL. The “ALANINE AMINOTRANSFERASE” value [2] was 47.83 u/L, the ALBUMIN [2] was 4.33 G/DL and the “ALKALINE PHOSPHATASE” value [2] was 414.5 u/L. For the same molecule, the “ASPARTATE AMINOTRANSFERASE” value [2] was 77.5 u/L, the “BLOOD UREA NITROGEN” value [2] was 17 mg/dL and the “CARBON DIOXIDE” value [2] was 32.33 mmol/L. For the same molecule, the CHLORIDE [2] was 99.33 MEQ/L, the CHOLESTEROL [2] was 76.33 mg/dL and the “CREATINE PHOSPHOKINASE” value [2] was 363.67 u/L. The CREATININE [2] was 0.25 mg/dL, the GLUCOSE [2] was 173.5 mg/dL and the “LACTATE DEHYDROGENASE” value [2] was 129.33 u/L. The LIPASE [2] was 9.17 u/L, the PHOSPHORUS [2] was 11.52 mg/dL and the POTASSIUM [2] was 5.73 MEQ/L. For the same molecule, the SODIUM [2] was 143.85 MEQ/L, the “TOTAL BILIRUBIN” value [2] was 0.2 mg/dL and the “TOTAL PROTEIN” value [2] was 6.43 G/DL. For the same molecule, the “URIC ACID” value [2] was 0.97 mg/dL, the “ABSOLUTE BASOPHIL” value [3] was 0 CELLS/uL and the “ABSOLUTE EOSINOPHIL” value [3] was 55.67 CELLS/uL. For the same molecule, the “ABSOLUTE LYMPHOCYTE” value [3] was 16817.67 CELLS/uL, the “ABSOLUTE MONOCYTE” value [3] was 567 CELLS/uL and the “ABSOLUTE SEGMENTED NEUTROPHIL” value [3] was 1026.33 CELLS/uL. The BASOPHIL [3] was 0%, the EOSINOPHIL [3] was 0.33% and the “ERYTHROCYTE COUNT” value [3] was 5.75 x10E6/uL. The HEMATOCRIT [3] was 36.5%, the HEMOGLOBIN [3] was 13.47 G/DL and the “LEUKOCYTE COUNT” value [3] was 18.47 x10E3/uL. For the same molecule, the LYMPHOCYTE [3] was 91%, the “MEAN CORPUSCULAR HEMOGLOBIN” value [3] was 23.47 pg and the “MEAN CORPUSCULAR HEMOGLOBIN CONCENTRATION” value [3] was 36.9 G/DL. For the same molecule, the “MEAN CORPUSCULAR VOLUME” value [3] was 63.5 fL, the MONOCYTE [3] was 3% and the NEUTROPHIL [3] was 5.67%. The “NUCLEATED RED BLOOD CELLS” value [3] was 0 /100WBC, the “PLATELET COUNT” value [3] was 1215.67 x10E3/uL and the “ALANINE AMINOTRANSFERASE” value [3] was 44.67 u/L. The ALBUMIN [3] was 4.4 G/DL, the “ALKALINE PHOSPHATASE” value [3] was 361 u/L and the “ASPARTATE AMINOTRANSFERASE” value [3] was 86 u/L. The “BLOOD UREA NITROGEN” value [3] was 16 mg/dL, the “CARBON DIOXIDE” value [3] was 33 mmol/L and the CHLORIDE [3] was 100.33 MEQ/L. The CHOLESTEROL [3] was 87 mg/dL, the “CREATINE PHOSPHOKINASE” value [3] was 700 u/L and the CREATININE [3] was 0.19 mg/dL. For the same molecule, the GLUCOSE [3] was 142.33 mg/dL, the “LACTATE DEHYDROGENASE” value [3] was 212 u/L and the LIPASE [3] was 9.33 u/L. For the same molecule, the PHOSPHORUS [3] was 13.33 mg/dL, the POTASSIUM [3] was 6.6 MEQ/L and the SODIUM [3] was 143.13 MEQ/L. The “TOTAL BILIRUBIN” value [3] was 0.2 mg/dL, the “TOTAL PROTEIN” value [3] was 6.2 G/DL and the “URIC ACID” value [3] was 1.67 mg/dL. The “ABSOLUTE BASOPHIL” value [4] was 0 CELLS/uL, the “ABSOLUTE EOSINOPHIL” value [4] was 0 CELLS/uL and the “ABSOLUTE LYMPHOCYTE” value [4] was 8863.67 CELLS/uL. The “ABSOLUTE MONOCYTE” value [4] was 61.67 CELLS/uL, the “ABSOLUTE SEGMENTED NEUTROPHIL” value [4] was 541.33 CELLS/uL and the BASOPHIL [4] was 0%. For the same molecule, the EOSINOPHIL [4] was 0%, the “ERYTHROCYTE COUNT” value [4] was 5.85 x10E6/uL and the HEMATOCRIT [4] was 36.3%. For the same molecule, the HEMOGLOBIN [4] was 13.67 G/DL, the “LEUKOCYTE COUNT” value [4] was 9.47 x10E3/uL and the LYMPHOCYTE [4] was 93.33%. The “MEAN CORPUSCULAR HEMOGLOBIN” value [4] was 23.37 pg, the “MEAN CORPUSCULAR HEMOGLOBIN CONCENTRATION” value [4] was 37.63 G/DL and the “MEAN CORPUSCULAR VOLUME” value [4] was 62 fL. For the same molecule, the MONOCYTE [4] was 0.67%, the NEUTROPHIL [4] was 6% and the “NUCLEATED RED BLOOD CELLS” value [4] was 0 /100WBC. The “PLATELET COUNT” value [4] was 1342 x10E3/uL, the “ALANINE AMINOTRANSFERASE” value [4] was 52.67 u/L and the ALBUMIN [4] was 4.23 G/DL. The “ALKALINE PHOSPHATASE” value [4] was 379 u/L, the “ASPARTATE AMINOTRANSFERASE” value [4] was 72.33 u/L and the “BLOOD UREA NITROGEN” value [4] was 16.33 mg/dL. For the same molecule, the “CARBON DIOXIDE” value [4] was 34.67 mmol/L, the CHLORIDE [4] was 100.67 MEQ/L and the CHOLESTEROL [4] was 67 mg/dL. The “CREATINE PHOSPHOKINASE” value [4] was 175.33 u/L, the CREATININE [4] was 0.2 mg/dL and the GLUCOSE [4] was 135 mg/dL. The “LACTATE DEHYDROGENASE” value [4] was 123 u/L, the LIPASE [4] was 8.67 u/L and the PHOSPHORUS [4] was 12.43 mg/dL. The POTASSIUM [4] was 6.37 MEQ/L, the SODIUM [4] was 145.67 MEQ/L and the “TOTAL BILIRUBIN” value [4] was 0.17 mg/dL. The “TOTAL PROTEIN” value [4] was 6.17 G/DL and the “URIC ACID” value [4] was 1.3 mg/dL.
